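Cultured in 96-well plates, cells were exposed to test compound for 48 hours across five concentrations. TGI denotes the concentration required for complete inhibition of growth.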
What was measured:
Test in all cases: NCI tumour cell line growth inhibition, 48 h
UACC-257 melanoma = tested on: UACC-257 melanoma
DLD-1 colon = tested on: DLD-1 colon
SK-MEL-2 melanoma = tested on: SK-MEL-2 melanoma
SF-295 CNS = tested on: SF-295 CNS
OVCAR-5 ovarian = tested on: OVCAR-5 ovarian
UACC-62 melanoma = tested on: UACC-62 melanoma
MCF7 breast = tested on: MCF7 breast
SW-620 colon = tested on: SW-620 colon
CCRF-CEM leukemia = tested on: CCRF-CEM leukemia
CAKI-1 renal = tested on: CAKI-1 renal
SN12C renal = tested on: SN12C renal
MOLT-4 leukemia = tested on: MOLT-4 leukemia
HL-60(TB) leukemia = tested on: HL-60(TB) leukemia
U251 CNS = tested on: U251 CNS
P388/ADR leukemia = tested on: P388/ADR leukemia
SK-OV-3 ovarian = tested on: SK-OV-3 ovarian
HOP-62 NSCLC = tested on: HOP-62 NSCLC
SN12K1 renal = tested on: SN12K1 renal
UO-31 renal = tested on: UO-31 renal
HCC-2998 colon = tested on: HCC-2998 colon
DMS 273 small cell lung = tested on: DMS 273 small cell lung
NCI-H226 lung = tested on: NCI-H226 lung
HCT-15 colon = tested on: HCT-15 colon
SK-MEL-28 melanoma = tested on: SK-MEL-28 melanoma
M19-MEL melanoma = tested on: M19-MEL melanoma
A549 NSCLC = tested on: A549 NSCLC
P388 leukemia = tested on: P388 leukemia
HOP-18 NSCLC = tested on: HOP-18 NSCLC
LOX IMVI melanoma = tested on: LOX IMVI melanoma
OVCAR-3 ovarian = tested on: OVCAR-3 ovarian
HT29 colon = tested on: HT29 colon
OVCAR-4 ovarian = tested on: OVCAR-4 ovarian
IGROV1 ovarian = tested on: IGROV1 ovarian
HCT-116 colon = tested on: HCT-116 colon
NCI-H460 lung = tested on: NCI-H460 lung
SF-268 CNS = tested on: SF-268 CNS
NCI-H522 lung = tested on: NCI-H522 lung
DMS 114 small cell lung = tested on: DMS 114 small cell lung
SNB-78 CNS = tested on: SNB-78 CNS
A498 renal = tested on: A498 renal
HOP-92 NSCLC = tested on: HOP-92 NSCLC
RXF 393 renal = tested on: RXF 393 renal
K-562 leukemia = tested on: K-562 leukemia
COLO 205 colon = tested on: COLO 205 colon
KM12 colon = tested on: KM12 colon
NCI-H23 lung = tested on: NCI-H23 lung
SNB-19 CNS = tested on: SNB-19 CNS
KM20L2 colon = tested on: KM20L2 colon
EKVX NSCLC = tested on: EKVX NSCLC
SNB-75 CNS = tested on: SNB-75 CNS
NCI/ADR-RES ovarian = tested on: NCI/ADR-RES ovarian
MALME-3M melanoma = tested on: MALME-3M melanoma
SF-539 CNS = tested on: SF-539 CNS
XF 498 CNS = tested on: XF 498 CNS
RPMI-8226 leukemia = tested on: RPMI-8226 leukemia
SK-MEL-5 melanoma = tested on: SK-MEL-5 melanoma
OVCAR-8 ovarian = tested on: OVCAR-8 ovarian

Measured: TGI

Cc1[nH]c(=O)[nH]c(=O)c1/C=C/C(=O)O (tested in a mixture with another compound)
> 568 µM: OVCAR-8 ovarian
623 µM: HOP-92 NSCLC
> 625 µM: all other assays above
